Data as given in patent publication US12459918B2, “Isoquinolinone derivatives serving as rock protein kinase inhibitors and use thereof” (GUANGZHOU OCUSUN OPHTHALMIC BIOTECHNOLOGY CO., LTD., priority 2019, dated 2025).

Assays:
[1] = test system: New Zealand rabbits with normal intraocular pressure; test: Reduction of intraocular pressure by repeated eye-drop administration for 14 days, experiment operation 1; assay type: in vivo; conditions: for Change of intraocular pressure: negative control minus group
Description: (§1) Experimental example 4. Experiment on reduction of intraocular pressure and ocular toxicity of New Zealand rabbits with normal intraocular pressure by repeated eye-drop administration for 14 days
(§2) The intraocular pressure reduction action and the potential ocular toxicity of compound 63 were explored by 14 days of repeated eye-drop administration in rabbits with normal intraocular pressure.
(§3) Male New Zealand rabbits, aged 97-127 days, weighted 2.6-3.5 kg, purchased from PizhouDongfang Breeding Co. Ltd.
The male New Zealand rabbits were randomly divided into 7 groups, with 6 rabbits per group. Animals were randomly divided according to body weight Animals in 1-7 groups were eye-dropped with solvent/control sample/test sample in both eyes, the volume of the administration was all 50 μL/eye, once per day for 14 consecutive days, and the day of the administration was recorded as Day 1. On Day 1, intraocular pressure of the animals was measured before the administration and in 1, 2, 4, 6, 8 and 10 hours after the administration, respectively; on Days 2-14, intraocular pressure of the animals was measured in 1 hour after daily administration for the group administered with K-115, and intraocular pressure of the animal was measured in 4 hours after daily administration for the other groups.

[2] = test system: New Zealand rabbits with normal intraocular pressure; test: Repeated eye-drop administration for 14 days, experiment operation 2: Day 1 intraocular pressure; assay type: in vivo; conditions: Day 1; for Mean intraocular pressure of both eyes: 4 mg/mL in right eye, saline in left; for Change of intraocular pressure: 4 mg/mL, group minus negative control
Description: as §1, §2, §3
42 male New Zealand rabbits were randomly divided into 7 groups, with 6 rabbits per group. Animals were randomly divided according to body weight Animals in 1-7 groups were eye-dropped with normal saline in the left eye and with solvent/control sample/test sample in the right eye respectively by a volume of 50 μL/eye, once per day for 14 consecutive days, and the day of administration was recorded as Day 1. The intraocular pressure of the animals was measured before Day 1 administration and in 1, 2, 4, 6, 8 and 10 hours after Day 1 administration, respectively (Table 8).

[3] = 4 mg/mL once per day, Day 2, 1 hour after daily administration
[4] = 4 mg/mL once per day, Day 3, 1 hour after daily administration
[5] = 4 mg/mL once per day, Day 4, 1 hour after daily administration
[6] = 4 mg/mL once per day, Day 5, 1 hour after daily administration
[7] = 4 mg/mL once per day, Day 6, 1 hour after daily administration
[8] = 4 mg/mL once per day, Day 7, 1 hour after daily administration
[9] = 4 mg/mL once per day, Day 8, 1 hour after daily administration
[10] = 4 mg/mL once per day, Day 9, 1 hour after daily administration
[11] = 4 mg/mL once per day, Day 10, 1 hour after daily administration
[12] = 4 mg/mL once per day, Day 11, 1 hour after daily administration
[13] = 4 mg/mL once per day, Day 12, 1 hour after daily administration
[14] = 4 mg/mL once per day, Day 13, 1 hour after daily administration
[15] = 4 mg/mL once per day, Day 14, 1 hour after daily administration

SMILES: C[C@H]1CNCCCN1S(=O)(=O)c1cccc2cncc(F)c12 [Compound K-115, reference compound]
- Mean intraocular pressure of both eyes ([1]; 4 mg/mL both eyes, Day 1, 1 hour after administration): 7.72 mmHg
- Mean intraocular pressure of both eyes ([1]; 4 mg/mL both eyes, Day 1, 2 hours after administration): 9.00 mmHg
- Mean intraocular pressure of both eyes ([1]; 4 mg/mL both eyes, Day 1, 4 hours after administration): 9.67 mmHg
- Mean intraocular pressure of both eyes ([1]; 4 mg/mL both eyes, Day 1, 6 hours after administration): 10.56 mmHg
- Mean intraocular pressure of both eyes ([1]; 4 mg/mL both eyes, Day 1, 8 hours after administration): 10.28 mmHg
- Mean intraocular pressure of both eyes ([1]; 4 mg/mL both eyes, Day 1, 10 hours after administration): 12.81 mmHg
- Mean intraocular pressure of both eyes ([1]; 4 mg/mL both eyes, Day 1, before administration): 10.83 mmHg
- Mean intraocular pressure of both eyes [1, 3]: 6.83 mmHg
- Change of intraocular pressure [1, 3]: 4.25 mmHg
- Mean intraocular pressure of both eyes [1, 4]: 6.81 mmHg
- Change of intraocular pressure [1, 4]: 3.58 mmHg
- Mean intraocular pressure of both eyes [1, 5]: 6.92 mmHg
- Change of intraocular pressure [1, 5]: 3.69 mmHg
- Mean intraocular pressure of both eyes [1, 6]: 6.67 mmHg
- Change of intraocular pressure [1, 6]: 4.3 mmHg
- Mean intraocular pressure of both eyes [1, 7]: 6.75 mmHg
- Change of intraocular pressure [1, 7]: 2.56 mmHg
- Mean intraocular pressure of both eyes [1, 8]: 7.39 mmHg
- Change of intraocular pressure [1, 8]: 2.67 mmHg
- Mean intraocular pressure of both eyes [1, 9]: 7.53 mmHg
- Change of intraocular pressure [1, 9]: 3.78 mmHg
- Mean intraocular pressure of both eyes [1, 10]: 7.78 mmHg
- Change of intraocular pressure [1, 10]: 1.66 mmHg
- Mean intraocular pressure of both eyes [1, 11]: 7.94 mmHg
- Change of intraocular pressure [1, 11]: 1.81 mmHg
- Mean intraocular pressure of both eyes [1, 12]: 7.94 mmHg
- Change of intraocular pressure [1, 12]: 1.75 mmHg
- Mean intraocular pressure of both eyes [1, 13]: 7.89 mmHg
- Change of intraocular pressure [1, 13]: 1.64 mmHg
- Mean intraocular pressure of both eyes [1, 14]: 8.25 mmHg
- Change of intraocular pressure [1, 14]: 3.14 mmHg
- Mean intraocular pressure of both eyes [1, 15]: 8.50 mmHg
- Change of intraocular pressure [1, 15]: 2.47 mmHg
- Change of intraocular pressure ([1]; 4 mg/mL, Day 1, 1 hour after administration): 2.59 mmHg
- Change of intraocular pressure ([1]; 4 mg/mL, Day 1, 2 hours after administration): 1.97 mmHg
- Change of intraocular pressure ([1]; 4 mg/mL, Day 1, 4 hours after administration): 1.64 mmHg
- Change of intraocular pressure ([1]; 4 mg/mL, Day 1, 6 hours after administration): 1.38 mmHg
- Change of intraocular pressure ([1]; 4 mg/mL, Day 1, 8 hours after administration): 2.69 mmHg
- Change of intraocular pressure ([1]; 4 mg/mL, Day 1, 10 hours after administration): 1.61 mmHg
- Change of intraocular pressure ([1]; 4 mg/mL, Day 1, before administration): −0.94 mmHg
- Mean intraocular pressure of both eyes ([2]; 1 hour after administration): 5.50 mmHg
- Mean intraocular pressure of both eyes ([2]; 2 hours after administration): 7.06 mmHg
- Mean intraocular pressure of both eyes ([2]; 4 hours after administration): 9.00 mmHg
- Mean intraocular pressure of both eyes ([2]; 6 hours after administration): 9.17 mmHg
- Mean intraocular pressure of both eyes ([2]; 8 hours after administration): 10.61 mmHg
- Mean intraocular pressure of both eyes ([2]; 10 hours after administration): 12.33 mmHg
- Mean intraocular pressure of both eyes ([2]; before administration): 10.17 mmHg
- Change of intraocular pressure ([2]; 1 hour after administration): −3.39 mmHg
- Change of intraocular pressure ([2]; 2 hours after administration): −2.50 mmHg
- Change of intraocular pressure ([2]; 4 hours after administration): −0.89 mmHg
- Change of intraocular pressure ([2]; 6 hours after administration): −1.61 mmHg
- Change of intraocular pressure ([2]; 8 hours after administration): 0.23 mmHg
- Change of intraocular pressure ([2]; 10 hours after administration): 0.17 mmHg
- Change of intraocular pressure ([2]; before administration): 0.83 mmHg
